# Data: patent US8444858B2, “Control of development of biofilms in industrial process water” (A.Y. Laboratories Ltd., priority 2001, dated 2013)
# Where two headings read alike, the source gives them in different places. Marks after values point to notes of the source that are not given here.
# Tests used:
# [1] = tested on: mixed culture of slime-forming-bacteria which had been isolated from a paper machine; experiment: Formation of biofilm on stainless steel coupons in a model system (viable counts in medium and on coupons); assay type: cell-based
# Description: Formation of biofilm on stainless steel coupons in the presence or absence of an oxidizing biocide or a biofilm inhibiting substance was evaluated in the laboratory. The test system consisted of (a) three closed flasks each containing 20 L nutrient-rich medium (diluted three-fold from its recommended use concentration), (b) three closed cells containing stainless steel coupons hanging freely, and (c) three identical circulation pumps, each pump connected via plastic pipes to one of the flasks and to one of the cells. The system was placed in a thermostatic room at 35° C.
# An innoculum containing a mixed culture of slime-forming-bacteria which had been isolated from a paper machine was added to each of the flasks. An oxidizer containing a 5 ppm mixture (expressed as total Cl2) of bromochlorodimethylhydantoin (an oxidizing biocide which is a source of HOBr and HOCl) (hereinafter “mixed halogens”) was added to the first flask once a day for the duration of the trial (4 days). […] The third flask served as a control for the two flasks treated with the oxidizing biocide or biofilm inhibiting substances. […] A diluted solution of sodium hypochlorite in deionized (DI) water (˜8000 ppm as total chlorine) was fed with one pump; a diluted solution of ammonium bromide (12500 ppm) was fed with the second pump. The two diluted solutions were synchronously mixed in a short glass pipe to form a pre-injection solution of biofilm inhibiting substance, using a pH meter to control and check the stability of the biofilm inhibiting substance formed. The biofilm inhibiting substance was fed to the test system immediately as it was produced.
# On days 2 and 4, each closed cell was opened and 2 coupons were aseptically removed from each cell. At the same time samples of the circulating medium were taken as well. Sampling was conducted after feeding the daily slug dose of biocide.
# Each sample of medium was serially 10-fold diluted in sterile saline solution and plated in molten agar. Each coupon was thoroughly rinsed to remove any adhered particles, aseptically scraped, and the material removed by scraping was quantitatively dispersed in saline solution, vortexed, serially 10-fold diluted and plated in molten agar. Viable counts of microorganisms were taken after 48 h of incubation at 35° C. Viable counts of cells in the medium are presented as colony forming units (cfu) per ml; viable counts on the coupon surfaces are presented as cfu/cm^2.
# [2] = tested on: biofilm; experiment: Waste water fouling control in a 7 km pipe, Hazen-Williams coefficient
# Description: Treated wastewater was piped from a wastewater treatment plant to a location 7 kilometers away.
# (The Hazen-Williams coefficient is used to express water flow through industrial pipes. It is calculated using the formula
# [formula] wherein P is the friction pressure drop expressed in pounds per square inch per 1000 feet of pipe length, B is the flow rate in barrels per hour, s is the specific gravity of the liquid, C=a friction factor (the Hazen-Williams coefficient), and d is the internal diameter of the pipe in inches. P and B are measured for a given pipe, s and d are treated as constants, and C is calculated. The results are presented as the Hazen-Williams coefficient.
# Waste water (up to 10 m^3/h) was used to appropriately dilute both chemicals. An on-line pH meter controlled the production process and the hypochlorite feeding rate to ensure the production of a stable biofilm inhibiting substance. The biofilm inhibiting substance was injected into the treated waste pipe as it was produced. Concentration of the biofilm inhibiting substance stock solution was 3000-4000 ppm; the pH was maintained at 9.5-10.
# [3] = tested on: catalase (Merck); experiment: Inactivation of catalase, residual H2O2 laboratory test; assay type: biochemical
# Description: Freshly prepared biofilm inhibiting substance was added to the appropriate flasks containing diluted catalase at a pre-defined feed rate. The contents of the containers were mixed for 60 minutes at room temperature prior to addition of H2O2 (to a final H2O2 concentration of 3.5 g/l). After addition of the H2O2, the mixture was allowed to mix for 30 minutes at room temperature, at which point H2O2 residues were measured in each flask in accordance with the Dr. Lange Cuvette Test LCW 058, measured with LASA 20 (based on Jander/Blasius: Lehrbach der Analytischen and Praparative Anorganischen Chemie, as described in the Handbook of Photometrical Operation Analysis (October 1997)).
# Sodium hypochlorite was diluted in DI water to a final concentration of 6000 ppm expressed as total chlorine. Ammonium bromide solution (equimolar to 1.1 mole of the diluted sodium hypochlorite solution, 10% excess on a molar basis) and ammonium chloride solution (equimolar to 1.1 mole of the diluted hypochlorite solution, 10% excess on a molar basis) were prepared. The diluted hypochlorite (50 ml) was added dropwise to 50 ml of the appropriate ammonium salt while the pH was constantly measured. The biofilm inhibiting substance concentration in the produced stock solution was immediately measured and the biofilm inhibiting substance at the appropriate feed level was immediately added to the test flasks.
# [4] = tested on: microorganisms, principally bacteria; conditions: for silo/slime formers: Plate Count agar with high excess of glucose; for silo/total count: R2A Agar
# Description: Process water samples were drawn and immediately inactivated with sodium thiosulfate to degrade any residue of the biofilm inhibiting substance. Samples were then serially ten-fold diluted in a Trypton (DIFCO) saline dilution medium. The diluted samples were plated in molten R2A Agar (hereinafter=“total count”) and in molten Plate Count agar containing a high excess of glucose (hereinafter “slime formers”). The agar solidified at room temperature and the plates were incubated at 35° C. for 48 h.
# [5] = day 1 of trial, cleaning period
# [6] = day 2 of trial, cleaning period
# [7] = day 3 of trial, cleaning period
# [8] = day 4 of trial, cleaning period
# [9] = day 6 of trial, cleaning period
# [10] = day 7 of trial, cleaning period
# [11] = day 8 of trial, cleaning period
# [12] = day 9 of trial, cleaning period
# [13] = day 10 of trial, cleaning period
# [14] = day 13 of trial, cleaning period
# [15] = day 16 of trial, clean paper machine
# [16] = day 17 of trial, clean paper machine
# [17] = day 20 of trial, clean paper machine
# [18] = day 21 of trial, clean paper machine
# [19] = day 24 of trial, clean paper machine
# [20] = day 27 of trial, clean paper machine
substance,measurement,setting,value
bromide activated chloramine [Fuzzicide BAC],state of coupons,[1]; after 2 days,remained clean
same,state of coupons,[1]; after 4 days,remained clean
same,control of planktonic microorganisms,"[1]; medium sample after four days, within detection limits",complete control of planktonic microorganisms
same,"Viable Counts After 2 Days, medium","[1]; planktonic cells in circulating medium, day 2, daily slug dose (Mixed Halogens 5 ppm, Fuzzicide BAC […] expressed as Cl2), 35° C.",1 × 10^6 cfu/ml
same,"Viable Counts After 4 Days, medium","[1]; planktonic cells in circulating medium, day 4, daily slug dose (Mixed Halogens 5 ppm, Fuzzicide BAC […] expressed as Cl2)",<100* cfu/ml
same,"Viable Counts After 2 Days, coupon surfaces","[1]; stainless steel coupons, day 2, daily slug dose (Mixed Halogens 5 ppm, Fuzzicide BAC […] expressed as Cl2)",<27* cfu/cm^2
same,"Viable Counts After 4 Days, coupon surfaces","[1]; stainless steel coupons, day 4, daily slug dose (Mixed Halogens 5 ppm, Fuzzicide BAC […] expressed as Cl2)",<27* Cfu/cm^2
same,Hazen-Williams coefficient (HW) maintenance,"[2]; 10 ppm as total chlorine for three hours once a week, over a period of months, after cleaning",constant value
same,Hazen-Williams coefficient (HW),"[2]; 10 ppm as total chlorine once a day for three hours for 6 consecutive days, HW before ~90",~104
same,Hazen-Williams coefficient (HW),"[2]; combination of pigging and 10 ppm (as total Cl2) once a day for three hours, HW before ~104",~116
same,"Residual H2O2 concentration, % of 3.5% g/l","[3]; BIS 8.1 ppm as total chlorine, catalase 26 units/ml, 60 min preincubation, 30 min after H2O2",21.4 % of 3.5% g/l
same,"Residual H2O2 concentration, % of 3.5% g/l","[3]; BIS 60 ppm as total chlorine, catalase 0 units/ml (no enzyme)",100 % of 3.5% g/l
same,"Residual H2O2 concentration, % of 3.5% g/l","[3]; BIS 60 ppm as total chlorine, catalase 26 units/ml",100 % of 3.5% g/l
same,"Residual H2O2 concentration, % of 3.5% g/l","[3]; BIS 140 ppm as total chlorine, catalase 26 units/ml",100 % of 3.5% g/l
same,silo/slime formers,[4]; [5],1.0 × 10^1 cfu
same,silo/total count,[4]; [5],1 × 10^0 cfu
same,silo/slime formers,[4]; [6],5.92 × 10^3 cfu
same,silo/total count,[4]; [6],5.68 × 10^4 cfu
same,silo/slime formers,[4]; [7],2.0 × 10^2 cfu
same,silo/total count,[4]; [7],4.8 × 10^4 cfu
same,silo/slime formers,[4]; [8],1.0 × 10^0 cfu
same,silo/total count,[4]; [8],7.6 × 10^3 cfu
same,silo/slime formers,[4]; [9],1.2 × 10^2 cfu
same,silo/total count,[4]; [9],3.8 × 10^3 cfu
same,silo/slime formers,[4]; [10],1.0 × 10^0 cfu
same,silo/total count,[4]; [10],4.0 × 10^3 cfu
same,silo/slime formers,[4]; [11],4.0 × 10^1 cfu
same,silo/total count,[4]; [11],1.68 × 10^3 cfu
same,silo/slime formers,[4]; [12],2.2 × 10^2 cfu
same,silo/total count,[4]; [12],5.0 × 10^3 cfu
same,silo/slime formers,[4]; [13],1.0 × 10^0 cfu
same,silo/total count,[4]; [13],1.18 × 10^3 cfu
same,silo/slime formers,[4]; [14],1.0 × 10^1 cfu
same,silo/total count,[4]; [14],2.4 × 10^3 cfu
same,silo/slime formers,[4]; [15],1.0 × 10^0 cfu
same,silo/total count,[4]; [15],2.0 × 10^2 cfu
same,silo/slime formers,[4]; [16],1.0 × 10^0 cfu
same,silo/total count,[4]; [16],6.0 × 10^1 cfu
same,silo/slime formers,[4]; [17],1.0 × 10^0 cfu
same,silo/total count,[4]; [17],3.0 × 10^2 cfu
same,silo/slime formers,[4]; [18],1.0 × 10^0 cfu
same,silo/total count,[4]; [18],7.5 × 10^2 cfu
same,silo/slime formers,[4]; [19],1.0 × 10^0 cfu
same,silo/total count,[4]; [19],1.0 × 10^2 cfu
same,silo/slime formers,[4]; [20],1.0 × 10^0 cfu
same,silo/total count,[4]; [20],1.1 × 10^2 cfu
same,viable counts in process water samples taken from the silo,"[4]; initial cleaning period, irrespective of high or low residue of Fuzzicide BAC",10^3-10^4 viable cells per ml
